Measured values published in ChEMBL document CHEMBL1201862, “PubChem BioAssay data set” (2004).
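Cells were grown in 96-well plates and exposed to each compound for 48 hours at five concentrations; endpoints were interpolated linearly between bracketing concentrations, or set to the highest concentration if not reached. The concentration for 50% growth inhibition is given as GI50.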 Activity calls are given as the source filed them. No stated cut-off is given here; in the data, active = GI50 up to about 1.1 µM and inactive = higher.

Tests used:
Assay in all cases: NCI tumour cell line growth inhibition, 48 h
[1] = tested on: 786-0
[2] = tested on: A498
[3] = tested on: A549
[4] = tested on: EKVX
[5] = tested on: HCT-116
[6] = tested on: HCT-15
[7] = tested on: HOP-62
[8] = tested on: HT-29
[9] = tested on: NCI-H23
[10] = tested on: OVCAR-3
[11] = tested on: PC-3
[12] = tested on: RPMI-8226
[13] = tested on: SF-539
[14] = tested on: SK-MEL-28
[15] = tested on: SK-MEL-2
[16] = tested on: SNB-19
[17] = tested on: UO-31
[18] = tested on: MOLT-4
[19] = tested on: OVCAR-4

Row | SMILES | GI50 [1] | GI50 [2] | GI50 [3] | GI50 [4] | GI50 [5] | GI50 [6] | GI50 [7] | GI50 [8] | GI50 [9] | GI50 [10] | GI50 [11] | GI50 [12] | GI50 [13] | GI50 [14] | GI50 [15] | GI50 [16] | GI50 [17] | GI50 [18] | GI50 [19]
1 | O=C1c2cc(Br)ccc2-c2ccc3c4ccc5c6c(ccc(c7ccc1c2c73)c64)C(=O)c1cc(Br)ccc1-5 | > 100 µM (inactive) | > 100 µM (inactive) | > 100 µM (inactive) | > 100 µM (inactive) | > 100 µM (inactive) | > 100 µM | > 100 µM (inactive) | > 100 µM (inactive) | > 100 µM (inactive) | > 100 µM (inactive) | > 100 µM (inactive) | > 100 µM (inactive) | > 100 µM (inactive) | > 100 µM (inactive) | > 100 µM (inactive) | > 100 µM (inactive) | > 100 µM (inactive) | – | –
2 | CC[C@@]1(C[C@H]2C[C@@]3(C(=O)OC)c4[nH]c5ccccc5c4CCN3C2=O)COC2(CCCCC2)O1 | 39.9 µM (inactive) | – | 24.5 µM (inactive) | 61.9 µM (inactive) | 30 µM (inactive) | 33.3 µM | 22.3 µM (inactive) | 27.4 µM (inactive) | 24.2 µM (inactive) | 51.2 µM (inactive) | 15 µM (inactive) | – | 35.1 µM (inactive) | – | 32.2 µM (inactive) | 12.5 µM (inactive) | 18.1 µM (inactive) | 16.6 µM (inactive) | 58.2 µM (inactive)
3 | CCCCCCCCCCCc1c(O)c(=O)c2c(oc3c(=O)c(CCCCCCCCCCC)c(O)c(=O)c3n2-c2ccc(N(C)C)cc2)c1=O | 17.5 µM (inactive) | 20.7 µM (inactive) | 23.6 µM (inactive) | 24 µM (inactive) | 17.6 µM (inactive) | 18.6 µM | 20.7 µM (inactive) | 23.1 µM (inactive) | 28.7 µM (inactive) | 18.8 µM (inactive) | – | 91.2 µM (inactive) | 20.3 µM (inactive) | 18 µM (inactive) | 21.7 µM (inactive) | 20.8 µM (inactive) | – | > 100 µM (inactive) | 16.5 µM (inactive)
4 | Cc1ccc(N(C)S(=O)(=O)c2ccccc2[N+](=O)[O-])cc1 | > 100 µM (inactive) | – | 39.6 µM (inactive) | 55.1 µM (inactive) | 39.1 µM (inactive) | 46.7 µM | 49.1 µM (inactive) | 34 µM (inactive) | 40.4 µM (inactive) | 44 µM (inactive) | 19 µM (inactive) | 33.9 µM (inactive) | 40.1 µM (inactive) | 44.9 µM (inactive) | 30.8 µM (inactive) | 64.9 µM (inactive) | 40.5 µM (inactive) | – | 41.7 µM (inactive)
5 | CCCCC1Cc2cc(OC)ccc2-c2nc3cc(OC)ccc3n21.CCCCC1Cc2cc(OC)ccc2-c2nc3ccc(OC)cc3n21 (stereo not drawn) | 14.7 µM (inactive) | – | 14 µM (inactive) | 12.6 µM (inactive) | 10.9 µM (inactive) | 3.37 µM | 15.7 µM (inactive) | 10.7 µM (inactive) | 14.7 µM (inactive) | 15 µM (inactive) | 11.2 µM (inactive) | 6.81 µM (inactive) | 16.1 µM (inactive) | – | – | 9.73 µM (inactive) | 12.3 µM (inactive) | 10.2 µM (inactive) | 4.7 µM (inactive)
6 | CCOC(=O)c1ccc(N2C(=S)N(C(=O)c3ccccc3)C(=N/c3ccccc3)/C2=N\c2ccccc2)cc1 | 42.2 µM (inactive) | – | 52.8 µM (inactive) | > 100 µM (inactive) | – | > 100 µM | 19.7 µM (inactive) | > 100 µM (inactive) | 56.1 µM (inactive) | 25.3 µM (inactive) | 59 µM (inactive) | > 100 µM (inactive) | 63.2 µM (inactive) | > 100 µM (inactive) | 40.6 µM (inactive) | 72.9 µM (inactive) | 56.9 µM (inactive) | > 10 µM (inactive) | –
7 | CC1C(=O)C23OC[C@@]1(C)C1(O)CC[C@@H](C)[C@]21CC3=O (stereo partly drawn) | > 100 µM (inactive) | – | > 100 µM (inactive) | > 100 µM (inactive) | > 100 µM (inactive) | > 100 µM | > 100 µM (inactive) | > 100 µM (inactive) | > 100 µM (inactive) | > 100 µM (inactive) | > 100 µM (inactive) | > 100 µM (inactive) | > 100 µM (inactive) | > 100 µM (inactive) | > 100 µM (inactive) | > 100 µM (inactive) | > 100 µM (inactive) | > 100 µM (inactive) | > 100 µM (inactive)
8 | O=C(Cn1nc(Br)c(Br)c1Br)c1ccccc1 | 23.7 µM (inactive) | 35 µM (inactive) | 33.7 µM (inactive) | 22.5 µM (inactive) | 18.1 µM (inactive) | 31.6 µM | 37.2 µM (inactive) | 22.2 µM (inactive) | 24.8 µM (inactive) | 34.1 µM (inactive) | 32.7 µM (inactive) | – | 18.2 µM (inactive) | 37.2 µM (inactive) | 20.7 µM (inactive) | 39.3 µM (inactive) | 18.2 µM (inactive) | 0.238 µM (active) | 36.1 µM (inactive)
9 | Cc1nc2ccc(/N=N/N(C)C)cc2[nH]1 | > 100 µM (inactive) | > 100 µM (inactive) | > 100 µM (inactive) | > 100 µM (inactive) | > 100 µM (inactive) | > 100 µM | > 100 µM (inactive) | > 100 µM (inactive) | – | > 100 µM (inactive) | > 100 µM (inactive) | > 100 µM (inactive) | – | > 100 µM (inactive) | > 100 µM (inactive) | > 100 µM (inactive) | > 100 µM (inactive) | > 100 µM (inactive) | > 100 µM (inactive)
10 | O=c1c2cc(S(=O)(=O)Nc3c(Cl)cccc3Cl)ccc2ncn1NS(=O)(=O)c1ccc2ccccc2c1 | > 62.5 µM (inactive) | – | > 62.5 µM (inactive) | 12.9 µM (inactive) | 61.8 µM (inactive) | 39.6 µM | 13 µM (inactive) | 16.4 µM (inactive) | > 62.5 µM (inactive) | 7.46 µM (inactive) | 12.8 µM (inactive) | 28.8 µM (inactive) | > 62.5 µM (inactive) | > 62.5 µM (inactive) | 20 µM (inactive) | 32.6 µM (inactive) | 10.9 µM (inactive) | 30.3 µM (inactive) | > 62.5 µM (inactive)
11 | CN(C)c1ccc(/C=C2\N=C(c3ccccc3)N(/N=C3\C(=O)Nc4ccccc43)C2=O)cc1 | 52.4 µM (inactive) | 73.6 µM (inactive) | 74.1 µM (inactive) | 27 µM (inactive) | 57.3 µM (inactive) | 61.5 µM | > 100 µM (inactive) | 53.8 µM (inactive) | > 100 µM (inactive) | 16.8 µM (inactive) | 56.5 µM (inactive) | – | > 100 µM (inactive) | > 100 µM (inactive) | 37.7 µM (inactive) | > 100 µM (inactive) | 36 µM (inactive) | 32 µM (inactive) | 32.4 µM (inactive)
12 | CC(=O)O/C=C1/C[C@H]2[C@@H]3CCC4CC(C(C)=O)CC[C@]4(C)[C@H]3CC[C@]2(C)C1=O (stereo partly drawn) | 68.2 µM (inactive) | > 100 µM (inactive) | – | > 100 µM (inactive) | 29.6 µM (inactive) | 14.8 µM | > 100 µM (inactive) | 51.4 µM (inactive) | 81.7 µM (inactive) | 33.2 µM (inactive) | > 100 µM (inactive) | – | – | > 100 µM (inactive) | > 100 µM (inactive) | 53.2 µM (inactive) | > 100 µM (inactive) | 39.1 µM (inactive) | > 100 µM (inactive)
13 | CC(NNC(=O)c1ccncc1)c1ccc(F)cc1 (stereo not drawn) | > 100 µM (inactive) | > 100 µM (inactive) | > 100 µM (inactive) | > 100 µM (inactive) | > 100 µM (inactive) | > 100 µM | > 100 µM (inactive) | > 100 µM (inactive) | > 100 µM (inactive) | > 100 µM (inactive) | > 100 µM (inactive) | – | > 100 µM (inactive) | > 100 µM (inactive) | > 100 µM (inactive) | > 100 µM (inactive) | > 100 µM (inactive) | 6.65 µM (inactive) | > 100 µM (inactive)
14 | COc1ccccc1/C=N/Nc1nnc2c3ccccc3c3ncccc3c2n1 | 28.1 µM (inactive) | – | > 100 µM (inactive) | 43.1 µM (inactive) | 72.4 µM (inactive) | > 100 µM | 17.1 µM (inactive) | 57.4 µM (inactive) | > 100 µM (inactive) | 47.2 µM (inactive) | > 100 µM (inactive) | 69.2 µM (inactive) | 19 µM (inactive) | > 100 µM (inactive) | 24.2 µM (inactive) | 39.2 µM (inactive) | > 100 µM (inactive) | 60.3 µM (inactive) | 17.8 µM (inactive)
15 | CC1(C)[C@H]2Cc3cc(-c4cc5c(cn4)[C@@H]4C[C@H]([C@@H]5[C@@H]5c6cc(-c7cc8c(cn7)[C@@H]7C[C@H](C8)C7(C)C)ncc6[C@@H]6C[C@H]5C6(C)C)C4(C)C)ncc3[C@@H]1C2 | > 100 µM (inactive) | > 100 µM (inactive) | > 100 µM (inactive) | > 100 µM (inactive) | > 100 µM (inactive) | > 100 µM | > 100 µM (inactive) | > 100 µM (inactive) | > 100 µM (inactive) | > 100 µM (inactive) | > 100 µM (inactive) | > 100 µM (inactive) | – | > 100 µM (inactive) | > 100 µM (inactive) | > 100 µM (inactive) | > 100 µM (inactive) | > 100 µM (inactive) | –
16 | NCC(=O)NC1(c2cc3ccccc3s2)CCCCC1 | 41.4 µM (inactive) | 31 µM (inactive) | 74.1 µM (inactive) | 19.9 µM (inactive) | 42.7 µM (inactive) | 61.1 µM | > 100 µM (inactive) | 18.6 µM (inactive) | 71.4 µM (inactive) | > 100 µM (inactive) | – | 21.8 µM (inactive) | 50.9 µM (inactive) | 19 µM (inactive) | – | > 100 µM (inactive) | 45.9 µM (inactive) | – | 50.8 µM (inactive)
